From US20070149481A1, “N,n-bridged, nitrogen-substituted carbacyclic indolocarbazoles as protein kinase inhibitors” (priority 2002, published 2007) come the findings set out here.

Data set [1] in a line: Determination of brain/plasma ratios for K252a and NAD002 for comparison with NAD0241 (Example 56F). The class given is in vivo, Wistar Han Rats. The note with it: rats, 1 hour post-administration. How it is done:
Application of Compound: 5 mg/kg of NAD 241 and NAD0180 each in a vehicle of 1.5 mL/kg PEG 400 Macrogol Ph. Eur. were applied i.v. through the femoral vein to two groups (n=3) of Wistar Han Rats weighing between 240-270 g. The application was performed under anaesthesia, initiated with 3.5% Isofluorane/O2, then maintained at 1% during compound application and suture of the vein. 200 μL of local anaesthetic lidocaine were locally administered. 1 hour after application of the compound 200 μl of blood were obtained by tail vein incision. Immediately following the blood sampling rats were terminated by decapitation after brief CO2 anaesthesia Brains were resected and weighed. Plasma was obtained by centrifugation of the tail vein blood at 13000 g for 20 minutes at 4° C. Prior art compounds […] and NAD002 and were assessed using identical conditions of application as used in example 56E to provide a direct comparison with NAD0241 for the ability to penetrate the blood-brain barrier. Volumes of injection for all compounds (including NAD0241) was fixed at 2.3 mL/kg, in average about 500-600 μL per animal. The other parameters were left unchanged. Sampling of body fluids and brain tissue was performed as described in example 56E. Extraction of compounds from brain and plasma was performed as described in example 56E but no concentrated ammonia solution was added prior to extraction of […] and NAD002. HPLC analysis of […] was performed on a 5 μm Merck RP 18 Select B 12.5×4.6 mm column at a flow rate of 0.75 mL/min with isocratic elution by acetonitrile/water 60/40 (v/v). Fluorescent excitation/emission was at 284 nm/476 nm. NAD002 was analyzed on a C 18 shield symmetry 25×4.6 mm (Waters and Owen) at 40° C. using excitation/emission wavelengths of 315/565 nm. Quantitations were performed as under example 56E.

For a further data set, the target named is T1, GSK3β (Homo sapiens, UniProt P49841).
T1 construct: purchased Upstate Discovery
Put plainly: Glycogen Synthase Kinase 3β inhibition assay (GSK3β). The following applies: 10 μM compound. Format: biochemical. How it is done:
The GSK3β kinase activity assay utilizes a radioactivity-based format in a 96-well PCR plate with radioactive readout. The GSK3 β activity was assayed in a 25 μL assay mixture containing 8 mM HEPES (pH 7.0), 250 μM ATP, 0.2 mM EDTA (pH 8), 2% DMSO, 250 ng/mL Myelin Basic Protein (MBP, Sigma M-1891), and 12 ng/mL GSK3β (Upstate Discovery, specific activity=607 nmol/min*GS2 peptide, concentration of 6.05 mg/mL). Compounds were screened for inhibition of the GSK3β kinase activity at a concentration of 10 μM. The kinase reaction was allowed to proceed at 37° C. for 30 minutes, then the reaction was stopped by addition of 5 μL of 0.5M EDTA (pH 8).

In a further data set the target is His tagged ERK2 (Homo sapiens, UniProt P28482). The experiment in a line: Extracellular signal Regulated Kinase 2 inhibition assay (ERK2), radioactive filtermat format. Format: biochemical. The note with it: 10 μM compound. How it is done: (§1) The ERK2 kinase activity assay utilizes a radioactivity-based format in a 96-well PCR plate with radioactive readout. The ERK2 activity was assayed in a 25 μL assay mixture containing 25 mM HEPES (pH 7.0), 250 μM ATP, 1 mM MgCl2, 1 mM DTT, 2% DMSO, 150 ng/mL Myelin Basic Protein (MBP, Sigma M-1891), and 13.6 ng/mL His tagged ERK2 (specific activity=38.1 nmol/min*mg). Compounds were screened for inhibition of the ERK2 kinase activity at a concentration of 10 μM. The kinase reaction was allowed to proceed at 37° C. for 30 minutes, then reaction was stopped by the addition of 5 μl of 0.5M EDTA (pH 8). 15 μL of each solution were then spotted onto the corresponding square of a filtermat (8×12 glassfibre mat 90×120 mm, PE-Wallac 1450-421). The filtermat was allowed to dry and washed once with 10% TCA, 2% PPA, 500 mM NaCl each for 30 minutes at rt. Two further washings in 10% TCA and 2% PPA for 30 minutes were performed, then a final 30 minute wash in 99% EtOH at rt was done and the filtermat was air dried. The dry filtermat was then placed in a sample bag with a Meltilex sheet (Melt-on scintillator sheets 73×109 mm, PE-Wallac 1450-441 for filtermat A) over the filtermat. The bag was trimmed to fit into the microplate heatsealer (PE-Wallac 1495-021). The heatsealer is used to melt the Meltilex on the filtermat. The bag containing the filtermat and the melted Meltilex was then placed into a filter cassette and counted using the Microbeta Jet Scintillation and Luminescence Counter PE-Wallac 1450.

The target in data set [2] is T2, PKA (catalytic subunit, bovine heart) (Bos taurus, UniProt P00517).
T2 construct: PKA (catalytic subunit, bovine heart, Calbiochem 539486); purchased Calbiochem 539486; host or cells: bovine heart (tissue-derived)
Put plainly: Protein Kinase A inhibition assay (PKA). The class given is biochemical. The note with it: 10 μM compound. How it is done: as §1
The PKA kinase activity assay utilizes a radioactivity-based format in a 96-well PCR plate with radioactive readout. The PKA activity was assayed in a 25 μL assay mixture containing 25 mM HEPES (pH 7.0), 250 μM ATP, 10 mM MgCl2, 1 mM DTT, 1 mM EDTA (pH 8). 2% DMSO. 250 ng/mL Histone H2B (Roche 223 514), and 2 ng/mL PKA (catalytic subunit, bovine heart, Calbiochem 539486, specific activity=1170 pmol/min*μg). Compounds were screened for inhibition of the PKA kinase activity at a concentration of 10 μM. The kinase reaction was allowed to proceed at 37° C. for 30 minutes, then the reaction was stopped by addition of 5 μL of 0.5M EDTA (pH 8). The remainder of the protocol is identical to the one reported for ERK2.

His tagged ERK2, sequence (P28482 whole entry): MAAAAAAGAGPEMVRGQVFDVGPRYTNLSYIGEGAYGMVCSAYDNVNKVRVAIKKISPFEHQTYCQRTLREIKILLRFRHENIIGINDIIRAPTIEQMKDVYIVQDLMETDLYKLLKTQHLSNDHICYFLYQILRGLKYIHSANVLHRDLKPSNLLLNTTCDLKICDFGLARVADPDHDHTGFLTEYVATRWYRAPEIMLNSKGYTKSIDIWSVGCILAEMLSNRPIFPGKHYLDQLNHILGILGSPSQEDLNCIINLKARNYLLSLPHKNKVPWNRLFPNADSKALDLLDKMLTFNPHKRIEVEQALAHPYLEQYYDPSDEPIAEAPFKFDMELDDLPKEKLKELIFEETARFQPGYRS
T1 sequence (P49841 whole entry, species assumed): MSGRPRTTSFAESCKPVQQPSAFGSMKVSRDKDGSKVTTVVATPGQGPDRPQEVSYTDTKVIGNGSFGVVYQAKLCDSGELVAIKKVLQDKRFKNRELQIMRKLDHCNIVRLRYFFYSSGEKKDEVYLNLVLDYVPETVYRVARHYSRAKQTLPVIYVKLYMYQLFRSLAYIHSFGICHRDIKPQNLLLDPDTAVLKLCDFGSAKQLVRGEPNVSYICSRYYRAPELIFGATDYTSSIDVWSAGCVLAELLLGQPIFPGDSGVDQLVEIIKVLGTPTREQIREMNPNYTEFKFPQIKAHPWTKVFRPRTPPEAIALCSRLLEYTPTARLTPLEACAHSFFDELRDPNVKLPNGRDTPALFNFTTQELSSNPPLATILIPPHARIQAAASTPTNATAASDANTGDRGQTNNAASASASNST

As for `NC(=O)[C@]1(N)CC2CC1n1c3ccccc3c3c4c(c5c6ccccc6n2c5c31)C(=O)NC4=O` (mixture of isomers) [Compound 5], the Kp at 1 h in data set [1] (Wistar Han, rat, brain and plasma, iv, 5 mg/kg, 5 mg/kg i.v., 2.3 mL/kg PEG 400, read-out: brain/plasma ratio) is about 1. Moreover, in data set [1], the “brain concentration compared with NAD002” value is on record as “Significantly higher”; the “improvement of brain/plasma ratio over K252a” value is reported as “about two-fold”; the “improvement of brain/plasma ratio over NAD002” value was “several-fold”; the “plasma levels compared with NAD002 and K252a” value was “Lower”. Also, at GSK3β, the inhibition (as a rule, the change of the read-out against control, counted positive when it falls) at 10 µM is 100%. In addition, the inhibition at 10 µM at His tagged ERK2 came out at 92.3%. In data set [2], this compound yielded an inhibition at 10 µM of 96.8%.
